Read-outs that look alike come from different tables or passages of the source.
Assays:
[1] = test system: Bacteroides fragilis ATCC 23745; experiment: MIC by broth microdilution; format: cell-based; conditions: internal code L1010, anaerobic, 48 hours
[2] = test system: Staphylococcus aureus; experiment: MIC by broth microdilution; format: cell-based; conditions: internal code L165; for MIC: Staphylococcus aureus, read-out: MIC of the compounds
[3] = test system: Staphylococcus aureus Smith (Int. code L 819); experiment: Experimental septicemia in mice; format: in vivo; conditions: treated once immediately after infection, survival on the 7th day; for ED50: Staphylococcus aureus, 168 h
Method: Some compounds of the invention were also tested in experimental septicemia in mice infected with Staphylococcus aureus Smith (Int. code L 819). For this purpose, groups of five mice were infected intraperitoneally with about 1 x 10^6 CFU of S. aureus Smith suspended in 0.5 ml of Difco bacteriological mucin. Untreated animals died within 48 hours. The other animals were treated once immediately after infection. On the 7th day the value of ED50 (expressed in mg/kg) was calculated by the method of Spearman-[…]., Statistical method in biological assay, page 254, C. Griffin Ltd., London, 1952), on the basis of the percentage of animals surviving at each dose.

[4] = test system: Pseudomonas aerug. ATCC10145; experiment: MIC by broth microdilution; format: cell-based, Pseudomonas aeruginosa; conditions: internal code L4; for MIC: Pseudomonas, ATCC10145, read-out: MIC of the compounds
[5] = test system: Strept. pneumoniae; experiment: MIC by broth microdilution; format: cell-based; conditions: internal code L44; for MIC: Streptococcus pneumoniae, read-out: MIC of the compounds
[6] = test system: Staph. aureus rifa-r^(2); experiment: MIC by broth microdilution; format: cell-based; conditions: for MIC: Staphylococcus aureus, read-out: MIC of the compounds
[7] = test system: Escherichia coli; experiment: MIC by broth microdilution; format: cell-based; conditions: internal code L47; for MIC: Escherichia coli, read-out: MIC of the compounds
[8] = test system: Staph. aureus Smith; experiment: MIC by broth microdilution; format: cell-based; conditions: internal code L819
[9] = test system: Proteus vulgaris ATCC 881; experiment: MIC by broth microdilution; format: cell-based; conditions: internal code L79; for MIC: Proteus vulgaris, ATCC881, read-out: MIC of the compounds
[10] = test system: Enterococc. faecalis ATCC 7080; experiment: MIC by broth microdilution; format: cell-based, Enterococcus faecalis; conditions: internal code L149; for MIC: Enterococcus faecalis, ATCC7080, read-out: MIC of the compounds
[11] = test system: Streptococcus pyogenes; experiment: MIC by broth microdilution; format: cell-based; conditions: internal code L49; for MIC: Streptococcus pyogenes, read-out: MIC of the compounds
[12] = test system: Haemoph. influenzae ATCC 19418; experiment: MIC by broth microdilution; format: cell-based, Haemophilus influenzae; conditions: internal code L970, 5% carbon dioxide, 48 hours; for MIC: Haemophilus influenzae, ATCC19418, read-out: MIC of the compounds
[13] = test system: Staph. aureus rifa-r^(1); experiment: MIC by broth microdilution; format: cell-based; conditions: for MIC: Staphylococcus aureus, read-out: MIC of the compounds
[14] = test system: Neisseria gonorrhoeae; experiment: MIC by broth microdilution; format: cell-based; conditions: internal code L997, 5% carbon dioxide, 48 hours; for MIC: Neisseria gonorrhoeae, read-out: MIC of the compounds
[15] = test system: Staph. epidermidis ATCC 12228; experiment: MIC by broth microdilution; format: cell-based; conditions: internal code L147; for MIC: Staphylococcus epidermidis, ATCC12228, read-out: MIC of the compounds
[16] = test system: Staph. haemolyticus rifa-r^(2); experiment: MIC by broth microdilution; format: cell-based; conditions: for MIC: Staphylococcus haemolyticus, read-out: MIC of the compounds
[17] = test system: Esch. coli K12 rifa-r^(1); experiment: MIC by broth microdilution; format: cell-based, Escherichia coli; conditions: Escherichia coli, read-out: MIC of the compounds
[18] = test system: Propionibact. acnes ATCC 6919; experiment: MIC by broth microdilution; format: cell-based, Propionibacterium acnes; conditions: Cutibacterium acnes, ATCC6919; internal code L1014; anaerobic, 48 hours; read-out: MIC of the compounds
[19] = test system: Moraxella catarr. ATCC 8178; experiment: MIC by broth microdilution; format: cell-based, Moraxella catharralis; conditions: ATCC8178, internal code L76, read-out: MIC of the compounds
[20] = test system: Bacteroides fragilis ATCC 25285; experiment: MIC by broth microdilution; format: cell-based; conditions: Bacteroides fragilis, ATCC25285; internal code L1011; anaerobic, 48 hours; read-out: MIC of the compounds
[21] = test system: Klebsiella pneumoniae; experiment: MIC by broth microdilution; format: cell-based; conditions: internal code L142, read-out: MIC of the compounds
[22] = test system: Clostridium perfringens; experiment: microbe, parasite or virus in culture; format: cell-based; conditions: read-out: MIC of the compounds
[23] = test system: Esch. coli K12 hyperpermeable; experiment: MIC by broth microdilution; format: cell-based, Escherichia coli; conditions: Escherichia coli, read-out: MIC of the compounds

Row | Compound | MIC [2] | MIC [4] | MIC [5] | MIC [6] | MIC [17] | MIC [18] | MIC [7] | MIC [19] | MIC [9] | MIC [10] | MIC [20] | MIC [21] | MIC [11] | MIC [12] | MIC [22] | MIC [13] | MIC [14] | MIC [23] | MIC [15] | MIC [16] | other results
1 | 36-[(1-Ethyl-6-fluoro-1,4-dihydro-7-(4-methyl-1-piperazinyl)-4-oxo-3-quinolinyl)carbonyloxy]-2'-(diethylamino)rifamycin P [Compound C22] |  |  |  |  |  |  |  |  |  |  |  |  |  |  |  |  |  |  |  |  | MIC of the compounds [1]: 0.13 µg/mL; MIC of the compounds [2]: 0.06 µg/mL; ED50 IV route ([3]; intravenous): 0.7 mg/kg; ED50 SC route ([3]; subcutaneous): 5.3 mg/kg; MIC of the compounds [4]: 32 µg/mL; MIC of the compounds [5]: 0.06 µg/mL; MIC of the compounds ([6]; internal code L1282, rifampicin resistant strain, highly resistant): 1 µg/mL; MIC of the compounds [7]: ≥128 µg/mL; MIC of the compounds [8]: 0.06 µg/mL; MIC of the compounds [9]: 64 µg/mL; MIC of the compounds [10]: 2 µg/mL; MIC of the compounds [11]: 0.06 µg/mL; MIC of the compounds [12]: 0.5 µg/mL; MIC of the compounds ([13]; internal code L721, rifampicin resistant strain, moderately resistant): 0.13 µg/mL; MIC of the compounds [14]: 0.25 µg/mL; MIC of the compounds [15]: 0.06 µg/mL; MIC of the compounds ([16]; internal code L602, rifampicin resistant strain, highly resistant): 0.5 µg/mL
2 | CO[C@H]1/C=C/O[C@@]2(C)Oc3c(C)c(O)c4c(c3C2=O)C(=O)C=C(NC(=O)/C(C)=C\C=C\[C@H](C)[C@H](O)[C@@H](C)[C@@H](O)[C@@H](C)[C@H](OC(=O)CBr)[C@@H]1C)C4=O [Compound C1, 36-Bromorifamycin S] | 0.004 µg/mL | 32 µg/mL | 0.03 µg/mL | 2 µg/mL | > 128 µg/mL | 0.016 µg/mL | 32 µg/mL | 0.008 µg/mL | 16 µg/mL | 1 µg/mL | 1 µg/mL | 128 µg/mL | 0.03 µg/mL | 1 µg/mL | 0.0003 µg/mL | 0.25 µg/mL | 1 µg/mL | 0.25 µg/mL | 0.004 µg/mL | 32 µg/mL | 
3 | CO[C@H]1/C=C/O[C@@]2(C)Oc3c(C)c(O)c4c(c3C2=O)C(=O)C=C(NC(=O)/C(C)=C\C=C\[C@H](C)[C@H](O)[C@@H](C)[C@@H](O)[C@@H](C)[C@H](OC(=O)CCl)[C@@H]1C)C4=O [Compound C3, 36-Chlororifamycin S] | 0.004 µg/mL | 32 µg/mL | 0.03 µg/mL | 16 µg/mL | > 128 µg/mL | 0.03 µg/mL | 32 µg/mL | 0.008 µg/mL | 8 µg/mL | 0.25 µg/mL | 0.13 µg/mL | 64 µg/mL | 0.016 µg/mL | 1 µg/mL | 0.0003 µg/mL | 1 µg/mL | 0.13 µg/mL | 0.25 µg/mL | 0.008 µg/mL | 64 µg/mL | 
4 | CO[C@H]1/C=C/O[C@@]2(C)Oc3c(C)c(O)c4c(c3C2=O)C(=O)C(N2CCOCC2)=C(NC(=O)/C(C)=C\C=C\[C@H](C)[C@H](O)[C@@H](C)[C@@H](O)[C@@H](C)[C@H](OC(=O)CBr)[C@@H]1C)C4=O [Compound C8, 36-Bromo-3-(4-morpholinyl)rifamycin S] | 0.002 µg/mL | 16 µg/mL | 0.03 µg/mL | 0.5 µg/mL | > 128 µg/mL | 0.004 µg/mL | 8 µg/mL | 0.002 µg/mL | 8 µg/mL | 0.5 µg/mL | 0.03 µg/mL | 16 µg/mL | 0.06 µg/mL | 0.13 µg/mL | 0.001 µg/mL | 0.5 µg/mL | 0.03 µg/mL | ≤ 0.13 µg/mL | 0.001 µg/mL | 16 µg/mL | 
5 | CO[C@H]1/C=C/O[C@@]2(C)Oc3c(C)c(O)c4c(c3C2=O)C(=O)C=C(NC(=O)/C(C)=C\C=C\[C@H](C)[C@H](O)[C@@H](C)[C@@H](O)[C@@H](C)[C@H](OC(=O)COC(C)=O)[C@@H]1C)C4=O [Compound C13, 36-Acetyloxyrifamycin S] | 0.002 µg/mL | 32 µg/mL | 0.008 µg/mL | 4 µg/mL | > 128 µg/mL | 0.03 µg/mL | 16 µg/mL | 0.004 µg/mL | 8 µg/mL | 0.13 µg/mL | 0.5 µg/mL | 64 µg/mL | 0.008 µg/mL | 0.5 µg/mL | 0.0005 µg/mL | 0.25 µg/mL | 0.25 µg/mL | ≤ 0.13 µg/mL | 0.001 µg/mL | 32 µg/mL | 
6 | CO[C@H]1/C=C/O[C@@]2(C)Oc3c(C)c(O)c4c(c3C2=O)C(=O)C(N2CCOCC2)=C(NC(=O)/C(C)=C\C=C\[C@H](C)[C@H](O)[C@@H](C)[C@@H](O)[C@@H](C)[C@H](OC(=O)CO)[C@@H]1C)C4=O [Compound C15, 36-Hydroxy-3-(4-morpholinyl)rifamycin S] | 0.002 µg/mL | 16 µg/mL | 0.016 µg/mL | 4 µg/mL | > 128 µg/mL | 0.016 µg/mL | 8 µg/mL | 0.002 µg/mL | 8 µg/mL | 0.5 µg/mL | 0.03 µg/mL | 8 µg/mL | 0.03 µg/mL | 0.06 µg/mL | 0.001 µg/mL | 2 µg/mL | 0.03 µg/mL | ≤ 0.13 µg/mL | 0.001 µg/mL | 4 µg/mL | 
7 | CCn1cc(C(=O)OCC(=O)O[C@H]2[C@H](C)[C@H](O)[C@H](C)[C@@H](O)[C@@H](C)/C=C/C=C(/C)C(=O)NC3=C(N4CCOCC4)C(=O)c4c(c(O)c(C)c5c4C(=O)[C@@](C)(O/C=C/[C@H](OC)[C@H]2C)O5)C3=O)c(=O)c2cc(F)c(N3CCN(C)CC3)cc21 [Compound C24, 36-{[1-Ethyl-6-fluoro-1,4-dihydro-7-(4-methyl-1-piperazinyl)-4-oxo-3-quinolinyl]carbonyloxy}-3-(4-morpholinyl) rifamycin S] | 0.06 µg/mL | 16 µg/mL | 0.008 µg/mL | 0.13 µg/mL |  | 0.06 µg/mL | 16 µg/mL |  | 16 µg/mL | 0.13 µg/mL |  |  | 0.06 µg/mL | 0.13 µg/mL |  | 0.06 µg/mL | 0.06 µg/mL |  | 0.008 µg/mL | 0.13 µg/mL | MIC ([1]; Bacteroides fragilis, ATCC23745, read-out: MIC of the compounds): 0.13 µg/mL; ED50 ([3]; intravenous, read-out: ED50 IV route): 3.8 mg/kg; ED50 ([3]; sc, subcutaneous, read-out: ED50 SC route): > 50 mg/kg; MIC ([8]; Staphylococcus aureus, read-out: MIC of the compounds): 0.06 µg/mL

From EP0700399B1, “36-DERIVATIVES OF RIFAMYCINS AND THEIR USE AS ANTIMICROBIAL AGENTS” (GRUPPO LEPETIT S.P.A., priority 1993, dated 1994)
